Measured values: PMC11062922 (Nature Chemical Biology, 2023)
Like-named read-outs stand apart in the source and are kept apart here.

What was measured:
ACOX1 = biological target: T1, ACOX1 (Homo sapiens, UniProt Q15067); assay: Kinobeads two-dose competition binding: ACOX1; details: sheet CATDS matrix 2; Gene Name ACOX1;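 further: competition of compounds with immobilized broad-spectrum kinase inhibitor beads in cell lysate at 100 and 1,000 nM, 45 min at 4 °C, bead-bound protein quantified by label-free MS versus DMSO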
T1 construct: endogenous in cells
T1 sequence (Q15067 1-660): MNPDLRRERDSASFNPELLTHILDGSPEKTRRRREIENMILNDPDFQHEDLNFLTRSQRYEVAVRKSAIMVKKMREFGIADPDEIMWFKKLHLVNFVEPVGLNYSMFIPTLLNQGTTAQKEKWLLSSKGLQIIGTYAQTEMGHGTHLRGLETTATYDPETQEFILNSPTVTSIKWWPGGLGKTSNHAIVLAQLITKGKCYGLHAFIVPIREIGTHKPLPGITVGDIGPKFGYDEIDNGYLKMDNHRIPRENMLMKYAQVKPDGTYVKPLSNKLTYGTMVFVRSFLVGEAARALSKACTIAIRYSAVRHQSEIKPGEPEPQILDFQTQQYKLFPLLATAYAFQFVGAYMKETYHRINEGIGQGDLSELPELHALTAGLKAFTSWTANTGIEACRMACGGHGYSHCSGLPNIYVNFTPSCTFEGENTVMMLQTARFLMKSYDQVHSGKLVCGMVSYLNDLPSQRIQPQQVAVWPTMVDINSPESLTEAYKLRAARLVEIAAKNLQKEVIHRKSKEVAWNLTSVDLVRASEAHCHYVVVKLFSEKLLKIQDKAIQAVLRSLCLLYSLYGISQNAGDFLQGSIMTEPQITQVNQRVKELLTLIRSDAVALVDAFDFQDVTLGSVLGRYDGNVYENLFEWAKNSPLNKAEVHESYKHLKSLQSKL

AAK1 = biological target: T2, AAK1 (Homo sapiens, UniProt Q2M2I8); assay: Kinobeads two-dose competition binding: AAK1; details: for potency estimated from few doses: read-out: Kinobeads Drugmatrix - all: apparent Kd, AAK1; for CATDS: sheet CATDS matrix 2, Gene Name AAK1;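 on all read-outs here: kinobeads competition pulldown from cell lysate, compound preincubated 45 min at 4 °C, bead-bound protein measured by label-free mass spectrometry against DMSO vehicle control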
T2 construct: to maximize the representation of endogenous proteins; endogenous in cells
T2 sequence (Q2M2I8 whole entry): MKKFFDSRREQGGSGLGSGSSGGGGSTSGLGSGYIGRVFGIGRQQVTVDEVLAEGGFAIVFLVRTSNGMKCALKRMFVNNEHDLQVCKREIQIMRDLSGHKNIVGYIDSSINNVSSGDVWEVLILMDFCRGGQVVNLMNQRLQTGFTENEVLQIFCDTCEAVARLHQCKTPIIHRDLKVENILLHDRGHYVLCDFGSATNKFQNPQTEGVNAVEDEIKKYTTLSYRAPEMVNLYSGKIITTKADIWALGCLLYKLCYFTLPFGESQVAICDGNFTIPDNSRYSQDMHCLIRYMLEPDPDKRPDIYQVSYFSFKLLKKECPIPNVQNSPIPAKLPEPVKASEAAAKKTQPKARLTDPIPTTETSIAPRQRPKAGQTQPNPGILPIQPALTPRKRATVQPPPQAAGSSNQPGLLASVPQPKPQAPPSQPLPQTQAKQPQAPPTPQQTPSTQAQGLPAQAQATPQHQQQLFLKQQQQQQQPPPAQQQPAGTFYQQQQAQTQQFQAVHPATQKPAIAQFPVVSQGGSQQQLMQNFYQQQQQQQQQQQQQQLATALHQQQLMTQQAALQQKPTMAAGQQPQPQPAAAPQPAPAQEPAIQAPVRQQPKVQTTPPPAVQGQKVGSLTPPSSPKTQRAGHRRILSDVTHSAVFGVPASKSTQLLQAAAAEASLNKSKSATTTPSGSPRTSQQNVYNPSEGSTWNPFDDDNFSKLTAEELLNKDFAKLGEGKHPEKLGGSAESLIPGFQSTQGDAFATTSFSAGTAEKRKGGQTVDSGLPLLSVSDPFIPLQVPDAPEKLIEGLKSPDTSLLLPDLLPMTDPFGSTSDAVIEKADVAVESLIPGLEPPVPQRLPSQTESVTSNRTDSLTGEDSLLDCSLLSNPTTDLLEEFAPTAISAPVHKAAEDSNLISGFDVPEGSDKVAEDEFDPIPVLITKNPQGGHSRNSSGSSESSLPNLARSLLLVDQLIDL

ABL1 = ABL1 (Homo sapiens, UniProt P00519); assay: Kinobeads two-dose competition binding: ABL1; details: sheet CATDS matrix 2; Gene Name ABL1
ABL1, sequence (P00519 28-1130 limits assumed): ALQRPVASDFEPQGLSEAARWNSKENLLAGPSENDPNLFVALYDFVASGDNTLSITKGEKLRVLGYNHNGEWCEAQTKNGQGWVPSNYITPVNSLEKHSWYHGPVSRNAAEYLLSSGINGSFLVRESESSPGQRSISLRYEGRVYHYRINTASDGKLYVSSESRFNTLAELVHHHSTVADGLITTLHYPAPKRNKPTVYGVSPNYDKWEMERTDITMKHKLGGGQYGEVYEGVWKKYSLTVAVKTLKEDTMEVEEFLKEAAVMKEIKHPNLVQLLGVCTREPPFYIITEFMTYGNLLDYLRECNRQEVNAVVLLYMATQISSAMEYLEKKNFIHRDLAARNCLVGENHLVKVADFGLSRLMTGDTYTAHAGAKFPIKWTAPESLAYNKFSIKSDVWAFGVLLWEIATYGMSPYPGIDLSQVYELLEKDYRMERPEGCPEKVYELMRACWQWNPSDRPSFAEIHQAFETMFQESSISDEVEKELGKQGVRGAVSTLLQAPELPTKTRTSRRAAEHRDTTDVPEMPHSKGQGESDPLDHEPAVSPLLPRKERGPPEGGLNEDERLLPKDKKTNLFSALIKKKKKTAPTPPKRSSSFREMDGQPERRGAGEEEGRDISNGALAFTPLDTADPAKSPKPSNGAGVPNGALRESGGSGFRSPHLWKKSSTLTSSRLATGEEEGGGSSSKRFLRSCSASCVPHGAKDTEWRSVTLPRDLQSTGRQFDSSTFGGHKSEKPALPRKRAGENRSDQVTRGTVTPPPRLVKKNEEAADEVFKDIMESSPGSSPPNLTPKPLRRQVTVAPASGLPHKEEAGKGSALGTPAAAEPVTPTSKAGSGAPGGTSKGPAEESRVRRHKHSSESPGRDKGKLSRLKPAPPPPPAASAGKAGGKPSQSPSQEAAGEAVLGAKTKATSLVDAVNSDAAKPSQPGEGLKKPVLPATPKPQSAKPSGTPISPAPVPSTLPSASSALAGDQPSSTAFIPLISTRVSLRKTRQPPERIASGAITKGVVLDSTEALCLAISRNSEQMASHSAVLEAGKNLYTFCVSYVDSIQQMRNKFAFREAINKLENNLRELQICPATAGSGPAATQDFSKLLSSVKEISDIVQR

ABL2 = biological target: T3, ABL2 (Homo sapiens, UniProt P42684); assay: Kinobeads two-dose competition binding: ABL2; details: sheet CATDS matrix 2; Gene Name ABL2
T3 construct: endogenous in cells
T3 sequence (P42684 whole entry): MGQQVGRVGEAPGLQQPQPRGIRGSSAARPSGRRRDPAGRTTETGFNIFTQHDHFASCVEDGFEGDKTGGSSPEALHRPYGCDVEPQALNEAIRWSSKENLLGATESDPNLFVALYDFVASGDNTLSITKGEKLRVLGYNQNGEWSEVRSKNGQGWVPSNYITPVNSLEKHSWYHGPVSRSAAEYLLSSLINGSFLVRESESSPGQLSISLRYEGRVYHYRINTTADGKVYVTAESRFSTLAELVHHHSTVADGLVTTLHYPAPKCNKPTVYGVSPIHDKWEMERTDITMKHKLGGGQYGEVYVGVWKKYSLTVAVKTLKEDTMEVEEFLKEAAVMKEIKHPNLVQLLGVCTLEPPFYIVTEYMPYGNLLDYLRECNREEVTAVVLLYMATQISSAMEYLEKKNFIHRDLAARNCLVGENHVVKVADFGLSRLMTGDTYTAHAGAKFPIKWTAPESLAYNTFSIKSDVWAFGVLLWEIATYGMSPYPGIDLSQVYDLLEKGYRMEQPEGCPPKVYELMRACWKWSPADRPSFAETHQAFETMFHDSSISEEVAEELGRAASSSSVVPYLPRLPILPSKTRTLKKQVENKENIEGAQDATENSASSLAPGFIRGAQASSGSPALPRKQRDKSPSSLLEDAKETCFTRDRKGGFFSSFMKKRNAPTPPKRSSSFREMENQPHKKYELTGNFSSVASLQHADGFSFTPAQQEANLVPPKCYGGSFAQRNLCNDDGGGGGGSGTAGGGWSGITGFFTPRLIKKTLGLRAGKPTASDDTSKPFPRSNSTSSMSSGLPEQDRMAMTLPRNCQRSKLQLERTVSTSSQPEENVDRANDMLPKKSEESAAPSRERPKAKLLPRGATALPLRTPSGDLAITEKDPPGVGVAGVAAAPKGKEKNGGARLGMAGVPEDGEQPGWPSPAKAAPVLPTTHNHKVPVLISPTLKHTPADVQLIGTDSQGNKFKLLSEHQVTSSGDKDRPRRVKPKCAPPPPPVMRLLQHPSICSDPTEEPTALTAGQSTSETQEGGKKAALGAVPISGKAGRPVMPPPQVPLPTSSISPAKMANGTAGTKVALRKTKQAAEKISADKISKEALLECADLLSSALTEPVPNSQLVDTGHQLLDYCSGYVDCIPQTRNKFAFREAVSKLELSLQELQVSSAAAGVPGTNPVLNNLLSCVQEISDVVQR

ACAD11 = biological target: T4, ACAD11 (Homo sapiens, UniProt Q709F0); assay: Kinobeads two-dose competition binding: ACAD11; details: sheet CATDS matrix 2; Gene Name ACAD11
T4 construct: endogenous in cells
T4 sequence (Q709F0 1-780): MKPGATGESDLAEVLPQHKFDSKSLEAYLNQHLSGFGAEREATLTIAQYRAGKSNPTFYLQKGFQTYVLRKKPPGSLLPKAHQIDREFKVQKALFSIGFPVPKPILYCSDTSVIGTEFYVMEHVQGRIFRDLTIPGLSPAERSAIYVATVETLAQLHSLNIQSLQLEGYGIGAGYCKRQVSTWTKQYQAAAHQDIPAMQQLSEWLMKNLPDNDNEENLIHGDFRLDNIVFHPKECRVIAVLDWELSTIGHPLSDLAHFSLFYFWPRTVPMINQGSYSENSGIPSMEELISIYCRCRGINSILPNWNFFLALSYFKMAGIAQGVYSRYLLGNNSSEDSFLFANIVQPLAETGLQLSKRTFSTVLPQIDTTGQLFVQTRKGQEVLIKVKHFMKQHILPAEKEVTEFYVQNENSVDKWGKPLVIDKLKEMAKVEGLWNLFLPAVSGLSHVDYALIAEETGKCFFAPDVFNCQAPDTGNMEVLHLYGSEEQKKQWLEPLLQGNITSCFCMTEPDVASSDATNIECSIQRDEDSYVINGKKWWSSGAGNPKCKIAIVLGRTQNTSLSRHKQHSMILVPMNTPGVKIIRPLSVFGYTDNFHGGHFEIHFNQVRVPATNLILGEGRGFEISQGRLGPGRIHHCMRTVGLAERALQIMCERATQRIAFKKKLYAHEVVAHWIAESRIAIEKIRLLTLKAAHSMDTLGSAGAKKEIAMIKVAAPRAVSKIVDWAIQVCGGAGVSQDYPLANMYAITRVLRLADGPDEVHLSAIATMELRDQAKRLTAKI

[1] = sheet "Kinobeads Drugmatrix - all", unit inferred, same values below 1000 recur in sheet "nanomolar"

Compound | CATDS (ACOX1) | potency estimated from few doses (AAK1; [1]) [µM] | CATDS (AAK1) | CATDS (ABL1) | CATDS (ABL2) | CATDS (ACAD11) | potency estimated from few doses (AAK1) [µM]
COC(=O)c1cccc(NC(=O)NC2CCN(c3ccnc(Nc4cc(OC)c(OC)c(OC)c4)n3)C2)c1 (centres unmarked) [GSK1379767A] | 0 | > 1 | 0 | 0 | 0 | 0 | 
Cc1ccc(C)c(NC(=O)NC2CCN(c3ccnc(Nc4ccc(F)cc4)n3)C2)c1 (centres unmarked) [GSK1379720A] | 0 |  | 0 | 0 | 0 | 0 | 
O=C(O[C@H]1CN[C@H](C#Cc2cc3ncnc(Nc4ccc5c(cnn5Cc5ccccc5)c4)c3s2)C1)N1CCOCC1 [GSK200398A_KCGS] | 0 |  | 0 | 0 | 0 | 0 | 
CCCN1CCC(c2ccc(Nc3nc(Nc4cc(F)ccc4C(N)=O)c4cc[nH]c4n3)c(OC)c2)CC1 [GSK1326255A] | 0 |  | 0 | 0 | 0 | 0 | 
NCC(NC(=O)c1cc(-c2cn[nH]c2)c(-c2ccnc3[nH]ccc23)s1)c1ccccc1 (centres unmarked) [GSK1325775A] | 0 | > 1 | 0 | 0 | 0 | 0 | 
CN(C)S(=O)(=O)c1cc(-c2ccc3nccc(-c4cccc(S(N)(=O)=O)c4)c3c2)cnc1N [GSK1669921A] | 0 |  | 0 | 0 | 0 | 0 | 
NC[C@H](CC1CCCCC1)NC(=O)c1ccc(-c2ccnc3[nH]ccc23)s1 [GSK1581428A] | 0 |  | 0.07203 | 0 | 0 | 0 | 0.0545
COc1cc(Nc2c(C#N)cnc3cc(OCCCN4CCN(C)CC4)c(OC)cc23)c(Cl)cc1Cl [Bosutinib, reference compound] | 0 |  |  |  |  | 0 | 
COc1cc(Nc2nccc(N3CCC(NS(=O)(=O)c4ccc(NC(C)=O)cc4)CC3)n2)cc(OC)c1OC [GSK1379825A] | 0 |  | 0 | 0 | 0 | 0 | 
Cc1c(Cn2c3ccccc3n3c(=O)cc(N4CCOCC4)nc23)cccc1C(F)(F)F [GSK2306394A] | 0 |  | 0 | 0 | 0 | 0 | 
COc1ccc2nc(-c3cccc(C)n3)nc(Nc3ccncc3)c2c1 [GSK204919_KCGS] | 0 |  | 0 | 0 | 0 | 0 | 
COc1ccc(C[C@@H](CN)NC(=O)c2cc(Br)c(-c3ccnc4[nH]ccc34)s2)cc1 [GSK1389063A] | 0 |  | 0 | 0 | 0 | 0 | 
CC(C)C(=O)N[C@@H]1CCN(C(=O)Nc2nc3c(s2)-c2nc(-c4ccccc4Cl)ncc2CC3)C1 [BI00047804] | 0 |  | 0 | 0 | 0 | 0 | 
CSc1nn2c(=O)cc(N3CCOCC3)nc2n1Cc1cccc(Cl)c1Cl [GSK2347225A] | 0 |  | 0 | 0 | 0 | 0 | 
Cc1ccc(NC(=O)c2cccc(N3CCCCC3)c2)cc1-c1ccc(C(=O)NCC2CC2)cc1 [GSK1917008A] | 0 |  | 0 | 0 | 0 | 0 | 
O=c1cc(N2CCOCC2)nc2n(Cc3ccc(F)c(Cl)c3)ccn12 [GSK2297099A] | 0 |  | 0 | 0 | 0 | 0 | 

Compound | CATDS (ACOX1) | potency estimated from few doses (AAK1; [1]) [µM] | CATDS (AAK1) | CATDS (ABL1) | CATDS (ABL2) | CATDS (ACAD11) | potency estimated from few doses (AAK1) [µM]
Cc1ccc(NC(=O)Nc2cc(C(C)(C)C)nn2-c2ccccc2)cc1 [GSK1014915A] | 0 |  | 0 | 0 | 0 | 0 | 
CN(C)C(=O)O[C@H]1CN[C@H](C#Cc2cc3ncnc(Nc4ccc(OCc5cccc(F)c5)c(Cl)c4)c3s2)C1 [GSK182497A] | 0 |  | 0 | 0 | 0 | 0 | 
O=c1[nH]cc(-c2ccc(O)cc2)c2sc(-c3ccncc3)cc12 [GSK1033723A] | 0 |  | 0 | 0 | 0 | 0 | 
C[C@@H](Oc1cc(-c2cnn(C3CCNCC3)c2)cnc1N)c1c(Cl)ccc(F)c1Cl [Crizotinib, reference compound] | 0 |  | 0 |  | 0.04718 | 0 | 
CNC(=O)c1ccccc1Sc1ccc2c(/C=C/c3ccccn3)n[nH]c2c1 [Axitinib, reference compound] | 0 |  | 0 |  | 0 | 0 | 
CC(C)(C)c1nc(-c2cccc(NS(=O)(=O)c3c(F)cccc3F)c2F)c(-c2ccnc(N)n2)s1 [Dabrafenib, reference compound] | 0 |  | 0 |  | 0.02813 | 0 | 
O=C(Nc1c[nH]nc1-c1nc2ccc(CN3CCOCC3)cc2[nH]1)NC1CC1 [AT-9283, reference compound] | 0 |  | 0.0448 |  | 0 | 0 | 
CO[C@@H](C(=O)N1Cc2n[nH]c(NC(=O)c3ccc(N4CCN(C)CC4)cc3)c2C1)c1ccccc1 [Danusertib, reference compound] | 0 |  | 0 |  | 0.05811 | 0 | 
Cc1nc(Nc2ncc(C(=O)Nc3c(C)cccc3Cl)s2)cc(N2CCN(CCO)CC2)n1 [Dasatinib, reference compound] | 0 |  | 0 |  | 0.1826 | 0 | 
C#Cc1cccc(Nc2ncnc3cc(OCCOC)c(OCCOC)cc23)c1 [Erlotinib, reference compound] |  |  | 0 | 0 |  |  | 
CNc1nc(-c2ccc3c(N)n[nH]c3c2)cc(N2C[C@@H](C(=O)NC3CCCCC3)CC[C@H]2C)n1 [GSK2334470] | 0 |  | 0 |  | 0 | 0 | 
COc1cc2ncnc(Nc3cccc(Br)c3)c2cc1OC [GI230329A] | 0 |  | 0 |  | 0 | 0 | 
COc1cccc(NC(=O)NC2CCN(c3ccnc(Nc4cc(OC)c(OC)c(OC)c4)n3)C2)c1 (centres unmarked) [GSK1379763A] |  | > 1 |  |  |  |  | 
COc1ccc(CNC(=O)NC2CCN(c3ccnc(Nc4cc(OC)c(OC)c(OC)c4)n3)C2)cc1 (centres unmarked) [GSK1379748A] |  | > 1 |  |  |  |  | 
O=c1[nH]ccc2nc(N[C@@H]3CCCNC3)nc(Nc3ccc(S(=O)(=O)N4CCOCC4)cc3)c12 [GSK2177277A] | 0 | 0.0641 | 0.01814 | 0 | 0 |  | 
COc1cc2ncnc(Nc3ccc(F)c(Cl)c3)c2cc1OCCCN1CCOCC1 [Gefitinib, reference compound] |  |  | 0 |  |  |  | 
